Measurements taken from paper PMC9122897, “SHR1032, a novel STING agonist, stimulates anti-tumor immunity and directly induces AML apoptosis” (Scientific Reports, 2022).

Legend:
human STING = target: T1, human STING (Homo sapiens, UniProt Q86WV6); assay: Thermal shift assay; type: binding; settings: human STING protein 5 uM; ligand bound vs apo
T1 construct: made in house; host or cells: E. coli
Description: (§1) We sought to develop small molecule compounds with increased STING agonist activity against human STING. GSK reported a series of non-CDN small molecules, represented by compound 1[13], with good human STING agonistic activity. Based on our molecular modeling analysis, along with the reported CDN-STING crystal structures, we designed a novel series of fused tricyclic heterocycle compounds and analyzed their binding to human STING with thermal shift assays and the potency in activation of STING signaling with a reporter cellular assay (Supplementary Table S1). Thermal shift assays measure the difference between apo STING and ligand bound STING in the inflection point at which 50% of protein is thermally unfolded (ΔTm). […] The ability of compounds to activate the IRF reporter gene in the THP1 cells was also evaluated.
The melting temperature (Tm) of human STING was determined by calculating the temperature at the inflection point of the thermal melt curve generated on a Roche LightCycler 480 using 384 plate format and 465–590 nm filter set. […] Florescence was measured while ramping the plate temperature from 20 to 95 °C and the resulting data was processed using ROCHE data analysis software. Delta Tms were calculated by subtracting the Tm of untreated protein from ligand treated samples. […]

THP1 reporter cells = assay: THP1 IRF luciferase reporter assay; type: cell-based; settings: Homo sapiens, THP-1; IRF Lucia luciferase reporter, 24 h; read-out: THP1 reporter cell EC50
Description: as §1
THP1 reporter cells were treated for 24 h with a total of 100 k cells and 150 ul media in each well a 96-well plate. […] Luminescence signal was measured using Tecan infinite M1000. EC50 values were calculated using non-linear regression analysis of GraphPad Prism. Cell growth was monitored by CellTiter-Glo Luminescent Cell Viability Assay (Promega) per manufacture’s protocol. GI50 values were calculated using non-linear regression analysis of GraphPad Prism. […]

THP1-STING-R232 cells = assay: CellTiter-Glo cell growth; type: cell-based, human; settings: Homo sapiens
Procedure: (§2) (a–d) AML cells were treated with STING agonists and standard of care cytarabine, and cell viability was measured by CellTiter Glo in (a) THP1-STING-R232, (b) THP1-STING-KO, (c) MV-4-11 and (d) MOLM-16. (e) MV-4-11, MOLM-16 and THP1-STING-KO cells were stimulated with 1 µM of SHR1032 for the indicated time points. The amount of pTBK1, total TBK1, pSTING, total STING and α-tubulin was measured by Western blot. pSTING phosphorylated STING. THP1 reporter cells were treated for 24 h with a total of 100 k cells and 150 ul media in each well a 96-well plate. Following the incubation, 20 µl of supernatant was transferred to an opaque 96 well ½ area plate and incubated for 30 s with 50 µl of QUANTI-Luc substrate (InvivoGen) per manufacturer’s instructions. Luminescence signal was measured using Tecan infinite M1000. EC50 values were calculated using non-linear regression analysis of GraphPad Prism. Cell growth was monitored by CellTiter-Glo Luminescent Cell Viability Assay (Promega) per manufacture’s protocol. GI50 values were calculated using non-linear regression analysis of GraphPad Prism. Cell lysates for western blotting were made in RIPA buffer (Sigma) with Halt Protease and Phosphatase Inhibitors (Thermo Scientific). Antibodies against pSTING, TBK1, pTBK1 and tubulin were purchased from Cell Signaling Technologies, and anti-STING was purchased from Protein Tech.

THP1-STING-KO cells = assay: CellTiter-Glo cell growth; type: cell-based, human
Procedure: as §2

T1 sequence (Q86WV6 155-341 limits assumed): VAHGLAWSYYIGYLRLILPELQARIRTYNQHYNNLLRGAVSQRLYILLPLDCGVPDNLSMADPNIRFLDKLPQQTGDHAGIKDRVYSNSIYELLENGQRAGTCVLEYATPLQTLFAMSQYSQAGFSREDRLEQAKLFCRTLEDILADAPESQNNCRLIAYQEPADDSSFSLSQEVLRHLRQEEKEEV

`CCn1nc(C)cc1C(=O)Nc1nc2cc(C(N)=O)cc(OC)c2n1CCC[C@H]1COc2cc(C(N)=O)cc3nc(NC(=O)c4cc(C)nn4CC)n1c23` [SHR1032] was tested, and the “Thermal shift ∆Tm” value (human STING) was 10.7 °C, the EC50 (THP1 reporter cells) was 30 nM and the GI50 (THP1-STING-R232 cells) was 23 nM. The cell growth inhibition (THP1-STING-KO cells) was “not detectable”.
